Reference: PubChem BioAssay AID2060610 (Molecular Pharmacology Branch, DTP, NCI, 2025)
Several values for one entry are separate records, joined by “and”; a condition that tells them apart may be missing. Equal values may be shown once.

System: 616215-338-R-J1-PDC complex spheroids, viability % test/control
Assay: Anticancer human tumor 616215-338-R-J1-PDC patient-derived colon adenocarcinoma cell line growth inhibition [CLK]
Settings: for viability, T/C: stronger effect = lower value; active = viability on the fitted dose curve at most 10% of control; inactive = the rest
Outline: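 Patient-derived tumor cells grown as complex spheroids with HUVEC endothelial cells and mesenchymal stem cells, treated with drug combinations. Concentrations descend in half-log steps from near clinical Cmax, or from 10 microM if Cmax unknown.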

[1] = curve of first compound, second compound 0.0316 µM
[2] = curve of first compound, second compound 0.1 µM
[3] = curve of first compound, second compound 0.316 µM
[4] = curve of first compound, second compound 1 µM
[5] = curve of first compound, second compound 3.16 µM
[6] = curve of first compound, second compound 10 µM
[7] = second compound 0.0316 µM, first compound 0.0316 µM
[8] = second compound 0.0316 µM, first compound 0.1 µM
[9] = second compound 0.0316 µM, first compound 0.316 µM
[10] = second compound 0.0316 µM, first compound 1 µM
[11] = second compound 0.1 µM, first compound 0.0316 µM
[12] = second compound 0.1 µM, first compound 0.1 µM
[13] = second compound 0.1 µM, first compound 0.316 µM
[14] = second compound 0.1 µM, first compound 1 µM
[15] = second compound 0.316 µM, first compound 0.0316 µM
[16] = second compound 0.316 µM, first compound 0.1 µM
[17] = second compound 0.316 µM, first compound 0.316 µM
[18] = second compound 0.316 µM, first compound 1 µM
[19] = second compound 1 µM, first compound 0.0316 µM
[20] = second compound 1 µM, first compound 0.1 µM
[21] = second compound 1 µM, first compound 0.316 µM
[22] = second compound 1 µM, first compound 1 µM
[23] = second compound 3.16 µM, first compound 0.0316 µM
[24] = second compound 3.16 µM, first compound 0.1 µM
[25] = second compound 3.16 µM, first compound 0.316 µM
[26] = second compound 3.16 µM, first compound 1 µM
[27] = second compound 10 µM, first compound 0.0316 µM
[28] = second compound 10 µM, first compound 0.1 µM
[29] = second compound 10 µM, first compound 0.316 µM
[30] = second compound 10 µM, first compound 1 µM
[31] = second compound 0.0316 µM, first compound 3.16 µM
[32] = second compound 0.0316 µM, first compound 10 µM
[33] = second compound 0.1 µM, first compound 3.16 µM
[34] = second compound 0.1 µM, first compound 10 µM
[35] = second compound 0.316 µM, first compound 3.16 µM
[36] = second compound 0.316 µM, first compound 10 µM
[37] = second compound 1 µM, first compound 3.16 µM
[38] = second compound 1 µM, first compound 10 µM
[39] = second compound 3.16 µM, first compound 3.16 µM
[40] = second compound 3.16 µM, first compound 10 µM
[41] = second compound 10 µM, first compound 3.16 µM
[42] = second compound 10 µM, first compound 10 µM
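Also: spheroids exposed to agents for 7 days.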
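For viability, T/C in this document: 100% = DMSO vehicle wells.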

COc1c(OCCCN2CCOCC2)ccc2c3n(c(=NC(=O)c4cnc(N)nc4)nc12)CCN3 + CN1CCN(c2cc(C(=O)Nc3cc4cc(-c5cnn(C)c5)ccc4cn3)ccn2)CC1
inactive: viability, T/C (second compound 0.0316 µM, first compound 0.00316 µM) 105% | viability, T/C (second compound 0.0316 µM, first compound 0.01 µM) 115% | viability, T/C [7] 89.8% | viability, T/C [8] 44% | viability, T/C [9] 30.8% | viability, T/C [10] 21.6% | viability, T/C (second compound 0.1 µM, first compound 0.00316 µM) 110% | viability, T/C (second compound 0.1 µM, first compound 0.01 µM) 94.4% | viability, T/C [11] 50.1% | viability, T/C [12] 29.1% | viability, T/C [13] 19.1% | viability, T/C [14] 12.3% | viability, T/C (second compound 0.316 µM, first compound 0.00316 µM) 26.4% | viability, T/C (second compound 0.316 µM, first compound 0.01 µM) 25.1% | viability, T/C [15] 11.8%
active: viability, T/C [16] 6.03% | viability, T/C [17] 4.47% | viability, T/C [18] 4.01% | viability, T/C (second compound 1 µM, first compound 0.00316 µM) 0.24% | viability, T/C (second compound 1 µM, first compound 0.01 µM) 1.7% | viability, T/C [19] 0.49% | viability, T/C [20] 0.1% | viability, T/C [21] 0.08% | viability, T/C [22] 1.24% | viability, T/C (second compound 3.16 µM, first compound 0.00316 µM) 0.1% | viability, T/C (second compound 3.16 µM, first compound 0.01 µM) 2.88% | viability, T/C [23] 0.11% | viability, T/C [24] 0.1% | viability, T/C [25] 1.07% | viability, T/C [26] 0.15% | viability, T/C (second compound 10 µM, first compound 0.00316 µM) 0.12% | viability, T/C (second compound 10 µM, first compound 0.01 µM) 0.15% | viability, T/C [27] 0.98% | viability, T/C [28] 0.33% | viability, T/C [29] 0.17% | viability, T/C [30] 1.41%
< 3.16 nM: IC50 [3] | IC50 [4] | IC50 [5] | IC50 [6]
36.2 nM: IC50 [2]
86.6 nM: IC50 [1]

CC(Nc1ccc2c(c1)OCCn1cc(N3C(=O)OCC3C(F)F)nc1-2)C(N)=O (stereo not given) + CNC(=O)c1ccc(Nc2nc(OC3CCCC3)c3c(-c4ccc5nc(C)oc5c4)c[nH]c3n2)c(OC)c1
3810 nM: IC50 [2]
inactive: viability, T/C [7] 95.8% | viability, T/C [8] 106% | viability, T/C [9] 100% | viability, T/C [10] 104% | viability, T/C [31] 104% | viability, T/C [32] 90.3% | viability, T/C [11] 52.5% | viability, T/C [12] 65.9% | viability, T/C [13] 51.7% | viability, T/C [14] 56.2% | viability, T/C [33] 51.5% | viability, T/C [34] 42.1% | viability, T/C [15] 38.8% | viability, T/C [16] 34.2% | viability, T/C [17] 37.6% | viability, T/C [18] 25.4% | viability, T/C [35] 26.1% | viability, T/C [36] 21.9% | viability, T/C [19] 33% | viability, T/C [20] 32.5% | viability, T/C [21] 26.4% | viability, T/C [22] 23.3% | viability, T/C [37] 16.4% | viability, T/C [38] 14.8% | viability, T/C [23] 35.2% | viability, T/C [24] 25.9% | viability, T/C [25] 21.7% | viability, T/C [26] 17.4% | viability, T/C [39] 17% | viability, T/C [40] 12.4% | viability, T/C [27] 28% | viability, T/C [28] 28.8% | viability, T/C [29] 21.9% | viability, T/C [30] 17.7% | viability, T/C [41] 17% | viability, T/C [42] 12.8%
> 10000 nM: IC50 [1]
< 31.6 nM: IC50 [3] | IC50 [4] | IC50 [5] | IC50 [6]

CC1(C)CCC(CN2CCN(c3ccc(C(=O)NS(=O)(=O)c4ccc(NCC5CCOCC5)c([N+](=O)[O-])c4)c(Oc4cnc5[nH]ccc5c4)c3)CC2)=C(c2ccc(Cl)cc2)C1 + CNC(=O)c1ccc(Nc2nc(OC3CCCC3)c3c(-c4ccc5nc(C)oc5c4)c[nH]c3n2)c(OC)c1
< 31.6 nM: IC50 [3] | IC50 [4] | IC50 [5] | IC50 [6]
416 nM: IC50 [2]
> 10000 nM: IC50 [1]
inactive: viability, T/C [7] 101% | viability, T/C [8] 99.1% | viability, T/C [9] 92.8% | viability, T/C [10] 100% | viability, T/C [31] 80% | viability, T/C [32] 91.5% | viability, T/C [11] 55.3% | viability, T/C [12] 50.6% | viability, T/C [13] 50.9% | viability, T/C [14] 42.8% | viability, T/C [33] 18.5% | viability, T/C [34] 56.7% | viability, T/C [15] 46.6% | viability, T/C [16] 49% | viability, T/C [17] 45.4% | viability, T/C [18] 33.9% | viability, T/C [35] 21.2% | viability, T/C [36] 45.7% | viability, T/C [19] 50.9% | viability, T/C [20] 48.2% | viability, T/C [21] 46.2% | viability, T/C [22] 35.9% | viability, T/C [37] 20.5% | viability, T/C [38] 48.9% | viability, T/C [23] 38.8% | viability, T/C [24] 42.5% | viability, T/C [25] 44.6% | viability, T/C [26] 33.3% | viability, T/C [39] 24.8% | viability, T/C [40] 50.7% | viability, T/C [27] 36.3% | viability, T/C [28] 42% | viability, T/C [29] 41.7% | viability, T/C [30] 41% | viability, T/C [41] 27.2% | viability, T/C [42] 41.7%

CC1COCCN1c1cc(C2(S(C)(=N)=O)CC2)nc(-c2ccnc3[nH]ccc23)n1 (stereo not given)
inactive: viability, T/C (compound 0.0316 µM) 94.9% and 102% | viability, T/C (compound 0.1 µM) 107% and 96.5% | viability, T/C (compound 0.316 µM) 97.7% and 96.1% | viability, T/C (compound 1 µM) 99.8% and 94.2% | viability, T/C (compound 3.16 µM) 105% and 106% | viability, T/C (compound 10 µM) 78.6% and 92.2%
> 10000 nM: IC50 (curve of compound)

C=CC(=O)Nc1cc(Nc2nccc(-c3cn(C)c4ccccc34)n2)c(OC)cc1N(C)CCN(C)C
> 300 nM: IC50 (curve of compound)
inactive: viability, T/C (compound 0.000949 µM) 108% and 95% | viability, T/C (compound 0.003 µM) 93.5% and 105% | viability, T/C (compound 0.00949 µM) 107% and 85.4% | viability, T/C (compound 0.03 µM) 95.3% and 86.5% | viability, T/C (compound 0.0949 µM) 134% and 90.5% | viability, T/C (compound 0.3 µM) 100% and 111%
